Patent publication US6531314B1, “Growth hormone secretagogue receptor family” (Merck & Co., Inc., priority 1998, dated 2003)

Experiments:
[1] = molecular target: T1, swine growth hormone secretagogue receptor (Type I, clone 7-3) (Sus scrofa, UniProt Q95254); experiment: 35S-Compound A binding assay, membranes of COS-7 cells transfected with clone 7-3
[2] = molecular target: T2, human growth hormone secretagogue receptor (Type I) (Homo sapiens, UniProt Q92847); experiment: aequorin bioluminescence assay in Xenopus oocytes; type: cell-based; details: human Type I cRNA expressed in oocytes; responded to concentrations ranging from 1 mM to as low as 0.1 nM
T2 construct: expressed in transfected cells; host or cells: Xenopus laevis oocytes injected with cRNA, together with aequorin and G-alpha-11 cRNA
T2 sequence (Q92847 whole entry): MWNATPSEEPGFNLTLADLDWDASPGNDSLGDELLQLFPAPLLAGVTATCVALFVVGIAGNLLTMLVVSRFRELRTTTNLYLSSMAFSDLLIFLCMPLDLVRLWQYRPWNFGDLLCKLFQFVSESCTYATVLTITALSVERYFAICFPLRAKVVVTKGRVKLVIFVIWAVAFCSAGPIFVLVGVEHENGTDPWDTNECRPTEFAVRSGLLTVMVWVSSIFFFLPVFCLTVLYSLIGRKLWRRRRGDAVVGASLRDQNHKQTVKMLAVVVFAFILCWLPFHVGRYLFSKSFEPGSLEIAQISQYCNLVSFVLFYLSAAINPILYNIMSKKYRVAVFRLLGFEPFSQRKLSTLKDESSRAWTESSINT
Protocol: (§1) Xenopus laevis oocytes were isolated and injected using standard methods previously described by Arena, et al., 1991, Mol. Pharmacol. 40, 368-374, which is hereby incorporated by reference. Adult female Xenopus laevis frogs (purchased from Xenopus One, Ann Arbor, Mich.) were anesthetized with 0.17% tricaine methanesulfonate and the ovaries were surgically removed and placed in a 60 mm culture dish (Falcon) containing OR-2 medium without calcium (82.5 mM NaCl, 2 mM KCl, 2.5 mM sodium pyruvate, 1 mM MgCl2, […] penicillin, 1 mg/ml streptomycin, 5 mM HEPES, pH=7.5; ND-96 from Specialty Media, N.J.). Ovarian lobes were broken open, rinsed several times, and oocytes were released from their sacs by collagenase A digestion (Boehringer-Mannheim; 0.2% for 2-3 hours at 18° C.) in calcium-free OR-2. […]
(§2) The ABA requires injection of library pool cRNA (25 ng/egg for pool sizes of 500 to 10,000) with aequorin cRNA (2 ng/egg) supplemented with the G-protein alpha subunit Ga11 (2 ng/egg). […] Polymerase chain reaction (PCR) was utilized to generate a DNA fragment corresponding to the open reading frame (ORF) of the aequorin cDNA with an optimized Kosak translational initiation sequence (Inouye, S. et. ul., 1985, Proc. Natl. Acad. Sci. USA 82:3154-3158). […]

rat GHSR type Ia = molecular target: T3, rat GHSR type Ia (Rattus norvegicus, UniProt O08725); experiment: aequorin bioluminescence in transfected 293-AEQ17 reporter cells; type: cell-based; details: rat GHSR ORF construct in 293-AEQ17 cells; three replicate samples (FIG. 26)
T3 construct: Met-1 to Val-260 with EcoRI (5′) and HpaI (3′) restriction sites appended, while a carboxyl-terminal fragment was generated from Lys-261 to Thr-364; expressed in transfected cells; host or cells: 293-AEQ17 (HEK-293 aequorin reporter line), transient lipofectamine transfection of the pSV7 ORF construct
T3 sequence (O08725 whole entry, the tested form may be a part): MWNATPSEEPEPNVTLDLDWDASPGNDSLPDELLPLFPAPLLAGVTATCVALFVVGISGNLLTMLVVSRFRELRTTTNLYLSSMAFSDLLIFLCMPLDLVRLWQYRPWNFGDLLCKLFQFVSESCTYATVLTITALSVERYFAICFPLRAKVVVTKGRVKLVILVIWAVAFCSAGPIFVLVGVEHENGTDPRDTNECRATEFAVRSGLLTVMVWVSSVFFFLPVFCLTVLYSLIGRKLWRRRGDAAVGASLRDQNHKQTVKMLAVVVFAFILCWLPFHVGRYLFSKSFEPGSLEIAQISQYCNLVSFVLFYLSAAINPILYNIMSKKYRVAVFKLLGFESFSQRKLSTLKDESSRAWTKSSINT
Protocol: Functional activity of the ORF construct was assessed by transfecting (using lipofectamine; GIBCO/BRL) […] of plasmid DNA into the aequorin expressing reporter cell line (293-AEQ17) cultured in 60 mm dishes. Following approximately 40 hours of expression the aequorin in the cells was charged for 2 hours with coelenterazine, the cells were harvested, washed and pelleted by low speed centrifugation into luminometer tubes. Functional activity was determined by measuring Compound A dependent mobilization of intracellular calcium and concomitant calcium induced aequorin bioluminescence.

[3] = molecular target: T1, swine growth hormone secretagogue receptor (Type I, clone 7-3); experiment: aequorin bioluminescence assay in Xenopus oocytes; type: cell-based; set-up: bioluminescence response: dose or concentration left out as unconfirmed
Protocol: as §1, §2

T1 sequence (Q95254 65-366): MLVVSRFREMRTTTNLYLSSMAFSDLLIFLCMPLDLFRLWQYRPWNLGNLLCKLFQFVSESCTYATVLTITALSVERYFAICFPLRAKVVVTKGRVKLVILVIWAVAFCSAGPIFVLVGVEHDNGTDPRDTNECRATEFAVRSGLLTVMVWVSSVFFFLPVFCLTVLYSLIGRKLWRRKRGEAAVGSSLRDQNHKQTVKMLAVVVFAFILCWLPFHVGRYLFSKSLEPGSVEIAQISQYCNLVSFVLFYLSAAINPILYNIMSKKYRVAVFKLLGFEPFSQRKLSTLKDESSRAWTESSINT

Compound	Kd [1]	Bmax ([1]; clone 7-3 expressed transiently in COS-7 cells, saturable binding)	lowest Compound A concentration giving a response [2]	luminescent response (mobilization of intracellular calcium) (rat GHSR type Ia)	bioluminescence response ([3]; oocytes injected with cRNA of clones 7-3 and 28-18)	lowest Compound A concentration giving a response ([3]; swine Type I cRNA expressed in oocytes, responded to concentrations ranging from 1 mM to as low as 0.1 nM)
CC(C)(N)C(=O)N[C@H](COCc1ccccc1)C(=O)N1CCC2(CC1)CN([35S](C)(=O)=O)c1ccccc12 [^35S-Compound A]	~0.2 nM	~80 fmol/mg protein				
CC(C)(N)C(=O)N[C@H](COCc1ccccc1)C(=O)N1CCC2(CC1)CN(S(C)(=O)=O)c1ccccc12 [Compound A]			0.1 nM	luminescent responses	positive bioluminescence response	0.1 nM
